According to patent US5120859A, “Chimeric amino acid analogues” (dated 1992):
Starred links: 1 amine or outer side, 2 acyl side, 3 side chain; linkers in the order of their positions; H or OH if unused. Non-standard residues stand in square brackets, D forms with d. Residues, ends and D or L forms follow the SMILES beside them. Pro(trans-4-guanidino) = N=C(N)N[C@H]1CN[C@H](C(=O)O)C1; Pro(cis-4-guanidino) = NC(N)=N[C@@H]1CN[C@H](C(=O)O)C1; X4 = N=C(N)NC[C@@H]1C[C@@H](C(=O)[*:2])N([*:1])C1; X1 = N=C(N)NC[C@@H]1C[C@H](C(=O)[*:2])N([*:1])C1; X2 = N=C(N)NC[C@H]1C[C@@H](C(=O)[*:2])N([*:1])C1; X5 = N=C(N)NC[C@H]1C[C@H](C(=O)[*:2])N([*:1])C1; X3 = N=C(N)N[C@H]1C[C@H](C(=O)[*:2])N([*:1])C1

biological target: IIbIIIa receptor (Homo sapiens, UniProt P05106+P08514); assay: biochemical; settings: read-out: IC50 (Ratio to GRGDV IC50)
Sequence (P08514 32-1039): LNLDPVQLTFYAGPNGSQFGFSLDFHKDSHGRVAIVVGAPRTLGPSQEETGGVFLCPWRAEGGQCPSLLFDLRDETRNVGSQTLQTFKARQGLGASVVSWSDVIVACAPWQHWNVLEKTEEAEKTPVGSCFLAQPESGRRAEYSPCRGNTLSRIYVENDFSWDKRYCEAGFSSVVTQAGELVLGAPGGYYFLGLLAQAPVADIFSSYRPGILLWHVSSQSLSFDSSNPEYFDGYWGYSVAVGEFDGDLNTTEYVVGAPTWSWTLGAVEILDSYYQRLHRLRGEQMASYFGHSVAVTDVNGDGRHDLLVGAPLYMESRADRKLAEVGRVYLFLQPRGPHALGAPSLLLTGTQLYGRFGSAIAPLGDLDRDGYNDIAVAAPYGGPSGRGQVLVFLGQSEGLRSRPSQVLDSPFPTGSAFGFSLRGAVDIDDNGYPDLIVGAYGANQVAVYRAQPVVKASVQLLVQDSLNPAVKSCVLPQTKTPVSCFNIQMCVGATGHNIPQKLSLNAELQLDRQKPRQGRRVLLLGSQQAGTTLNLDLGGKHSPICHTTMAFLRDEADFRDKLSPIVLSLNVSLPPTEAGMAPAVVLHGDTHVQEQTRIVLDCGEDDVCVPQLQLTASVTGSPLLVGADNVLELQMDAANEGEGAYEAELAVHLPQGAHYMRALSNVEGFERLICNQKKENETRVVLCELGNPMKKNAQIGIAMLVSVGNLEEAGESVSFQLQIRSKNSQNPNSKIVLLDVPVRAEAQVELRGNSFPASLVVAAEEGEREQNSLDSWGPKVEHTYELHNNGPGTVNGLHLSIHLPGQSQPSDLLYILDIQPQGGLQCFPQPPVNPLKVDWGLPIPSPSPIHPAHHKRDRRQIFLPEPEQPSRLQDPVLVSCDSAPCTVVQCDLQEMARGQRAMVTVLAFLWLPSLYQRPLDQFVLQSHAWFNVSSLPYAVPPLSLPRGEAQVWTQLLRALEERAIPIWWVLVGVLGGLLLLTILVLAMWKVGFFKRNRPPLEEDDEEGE
Sequence (P05106 27-788): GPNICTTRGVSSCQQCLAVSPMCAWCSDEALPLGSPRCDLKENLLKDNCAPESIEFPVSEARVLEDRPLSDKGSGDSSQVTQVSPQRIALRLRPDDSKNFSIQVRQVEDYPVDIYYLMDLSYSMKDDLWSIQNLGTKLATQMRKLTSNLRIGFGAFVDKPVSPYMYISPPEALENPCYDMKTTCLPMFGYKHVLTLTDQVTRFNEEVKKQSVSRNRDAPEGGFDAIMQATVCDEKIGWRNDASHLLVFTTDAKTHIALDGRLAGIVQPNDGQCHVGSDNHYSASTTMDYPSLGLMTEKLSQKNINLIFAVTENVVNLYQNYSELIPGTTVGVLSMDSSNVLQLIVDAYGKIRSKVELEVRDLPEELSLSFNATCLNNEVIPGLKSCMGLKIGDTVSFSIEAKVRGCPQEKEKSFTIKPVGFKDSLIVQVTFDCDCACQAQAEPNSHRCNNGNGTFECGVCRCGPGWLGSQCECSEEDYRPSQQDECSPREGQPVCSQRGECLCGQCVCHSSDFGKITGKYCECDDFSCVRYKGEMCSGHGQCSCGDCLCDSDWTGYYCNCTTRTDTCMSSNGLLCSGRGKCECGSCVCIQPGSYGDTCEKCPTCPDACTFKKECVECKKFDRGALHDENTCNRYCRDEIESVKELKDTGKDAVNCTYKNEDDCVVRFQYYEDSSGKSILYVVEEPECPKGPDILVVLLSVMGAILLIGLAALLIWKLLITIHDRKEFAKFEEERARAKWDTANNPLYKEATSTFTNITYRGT
Procedure: Microtier plates are coated with fibrinogen (10 ug/ml) and then blocked with TACTS buffer containing 0.5% BSA. (TACTS buffer contains 20 mM Tris.HCl, pH 7.5, 0.02% sodium azide, 2 mM calcium chloride, 0.05% Tween 20, 150 mM sodium chloride.) The plate is washed with phosphate buffered saline containing 0.01% Tween 20 and a dilution of the sample to be determined added, followed by addition of solubilized IIbIIIa receptor (40 ug/ml) in TACTS, 0.5% BSA. After incubation, the plate is washed and murine monoclonal anti-platelet antibody AP3 (1 ug/ml) added. After another wash, […] IgG conjugated to horseradish peroxidase are added. A final wash is performed and developing reagent buffer (10 mg o-phenylenediamine dihydrochloride, 0.0212% hydrogen peroxide, 0.22 mM citrate, 50 mM phosphate, pH 5.0) is added and then incubated until color developed. The reaction is stopped with 1N sulfuric acid and the absorbance at 492 nm is recorded. […] The ratio represents the ratio of the IC50 of the test compound to the IC50 of the internal standard (GRGDV).

Compound	IC50
CC(C)[C@H](NC(=O)[C@H](CC(=O)O)NC(=O)CNC(=O)[C@H]1C[C@H](CNC(=N)N)CN1)C(=O)O [##STR51##]	6.4 nM
CC(C)[C@H](NC(=O)[C@H](CC(=O)O)NC(=O)CNC(=O)[C@@H]1C[C@H](CNC(=N)N)CN1)C(=O)O [##STR52##]	10 nM
CC(C)[C@H](NC(=O)[C@H](CC(=O)O)NC(=O)CNC(=O)[C@@H]1C[C@@H](CNC(=N)N)CN1C(=O)CN)C(=O)O [##STR53##] (H-G[X4]GDV-OH)	30 nM
CC(C)[C@H](NC(=O)[C@H](CC(=O)O)NC(=O)CNC(=O)[C@H]1C[C@H](NC(=N)N)CN1C(=O)CN)C(=O)O [##STR54##] (H-G[X3]GDV-OH)	226 nM
CC(C)[C@H](NC(=O)[C@H](CC(=O)O)NC(=O)CNC(=O)[C@@H]1C[C@H](NC(=N)N)CN1C(=O)CN)C(=O)O [##STR55##] (H-G[Pro(cis-4-guanidino)]GDV-OH)	565 nM
CC(C)[C@H](NC(=O)[C@H](CC(=O)O)NC(=O)CNC(=O)[C@H]1C[C@H](CNC(=N)N)CN1C(=O)CN)C(=O)O [##STR56##] (H-G[X5]GDV-OH)	37 nM
CC(C)[C@H](NC(=O)[C@H](CC(=O)O)NC(=O)CNC(=O)[C@H]1C[C@@H](CNC(=N)N)CN1C(=O)CN)C(=O)O [##STR57##] (H-G[X1]GDV-OH)	25 nM
CC(C)[C@H](NC(=O)[C@H](CC(=O)O)NC(=O)CNC(=O)[C@@H]1C[C@H](CNC(=N)N)CN1C(=O)CN)C(=O)O [##STR58##] (H-G[X2]GDV-OH)	101 nM
CC(C)[C@H](NC(=O)[C@H](CC(=O)O)NC(=O)CNC(=O)[C@@H]1C[C@H](NC(=N)N)CN1)C(=O)O [##STR59##] (H-[Pro(cis-4-guanidino)]GDV-OH)	155 nM
CC(C)[C@H](NC(=O)[C@H](CC(=O)O)NC(=O)CNC(=O)[C@@H]1C[C@@H](NC(=N)N)CN1C(=O)CN)C(=O)O [##STR60##] (H-G[Pro(trans-4-guanidino)]GDV-OH)	1700 nM
